Measured values from publication PMC7594851, “Enhanced oral bioavailability of an etoposide multiple nanoemulsion incorporating a deoxycholic acid derivative–lipid complex” (Drug Delivery, 2020).
≈ marks a conversion by molar mass, not a printed value. Where “and” joins values, the source holds several entries; their conditions need not be identical. Identical values can stand only once. Counter-ions that a name gives are not always drawn.

Columns and labels:
[1] = Droplet size, polydispersity index and zeta potential by dynamic laser light scattering; assay type: physicochemical; details: mean ± SD, n=6
Protocol: The average droplet size, polydispersity index (PDI), and zeta potential of ELNE were determined using a dynamic laser light scattering analyzer (Malvern Zetasizer Nano ZS90; Malvern Instruments, Malvern, UK). Morphological evaluation of the selected ELNE was performed by transmission electron microscopy (JEM-200; JEOL, Tokyo, Japan).

[2] = Aqueous solubility of ETP and ETP/LMC complexes; assay type: physicochemical; details: water; mean ± SD, n=6
Excerpt: Supplement IDRD_A_1837293_SM2931.docx, table 3: Table S3. Aqueous solubilities of a physical complex of ETP and LMC and effective permeabilities of ETP and ETP/LMC or ETP and ETP/LMC-loaded nanoemulsion. | column: Aqueous solubility (μg/mL)

[3] = Parallel artificial membrane permeability assay (effective permeability, Pe); assay type: in vitro ADME; details: PAMPA; Table S3: after dissolution of ETP or ETP/LMCs in water, or incorporation into the nanoemulsion; mean ± SD, n=6
Protocol: A parallel artificial membrane permeability assay was performed using pre-coated 96-well plates designed for this assay (Corning, Corning, NY) according to the manufacturer’s instructions. Briefly, 300 µL PBS (pH 6.8) was added to the receiver plate, and 200 µL of each formulation diluted in PBS (pH 6.8) containing 100 µg/mL ETP was added to each well of the filter plate. The plates were then assembled, and the system was incubated at room temperature for five hours without shaking. After five hours, the plates were disassembled, and samples were withdrawn from both the donor and acceptor plates. The concentration of ETP that permeated through the artificial membrane was measured by HPLC at 254 nm. […] The effective permeability (Pe) of each sample was calculated according to the formula: (1) Pe=−ln[1−CA(t)/Cequilibrium]/[A ×(1/VD+1/VA)×t] where Pe is the permeability (cm/s), A is the effective permeation area (0.288 cm^2), VD is the volume of the donor well (0.2 mL), VA is the volume of the acceptor well (0.3 mL), t is the total incubation time in s, CA(t) is the concentration of the drug in the acceptor well at time t, and Cequilibrium represents [CD(t) × VD + CA(t) × VA]/(VD + VA), where CD(t) denotes the concentration of the drug in the donor well at time t.

| solubility [2] | Papp at 5 h, 100 µg/mL [3] | SMILES | Particle size [1] | Polydispersity index [1] | Zeta potential [1] |
| --- | --- | --- | --- | --- | --- |
| – | – | COC(=O)C(CCCCN)NC(=O)CCC(C)C1CCC2C3CCC4CC(O)CCC4(C)C3CC(O)C12C (stereo not drawn) [DCK, N^α-deoxycholyl-l-lysyl-methylester] | 263 ± 42.4 nm | 0.717 ± 0.107 | 29.4 ± 0.57 mV and 29.4 ± 0.576 mV |
| 0.23 ± 0.0294 mg/mL (≈ 391 µM) | 2.51 ± 0.63 nm/s | COc1cc([C@@H]2c3cc4c(cc3[C@@H](O[C@@H]3O[C@@H]5CO[C@@H](C)O[C@H]5[C@H](O)[C@H]3O)[C@H]3COC(=O)[C@H]23)OCO4)cc(OC)c1O [ETP, etoposide] | – | – | – |
| – | – | CCCCCCCCCC(=O)OC[C@H](COP(=O)(O)O)OC(=O)CCCCCCCCC [PA, 1,2-didecanoyl-sn-glycero-3-phosphate (sodium salt)] | 276 ± 3.67 nm | 0.330 ± 0.008 | – |
